# From patent USRE48461E1, “Modulation of androgen receptor expression” (Ionis Pharmaceuticals, Inc., priority 2012, dated 2021)
# Tests used:
# Type in all cases: cell-based, human
# LNCaP cells = assay: LNCaP cell proliferation, ASO in combination with MDV3100 (Example 20); conditions: Homo sapiens, LNCaP, read-out: inhibited proliferation, MDV3100 with control oligonucleotide ISIS 549148
# Experimental: LNCaP cells were plated at 1,000 cells per well. […] ISIS 549148 was included as a negative control. […] After a treatment period of 5 days, the proliferative capacity of the cancer cells was measured with CellTiter 96® AQueous One or CellTiter-Glo® Solution Cell Proliferation kit (Promega), following the manufacturer's instructions. […]
# 22RV1 cells = assay: 22RV1 cell proliferation, ASO in combination with MDV3100 (Example 22); conditions: Homo sapiens, 22Rv1, read-out: inhibited proliferation, MDV3100 with control oligonucleotide ISIS 549148
# Experimental: 22RV1 cells were plated at 2,000 cells per well in 5% CSS medium for 48 hours. […] ISIS 549148 was included as a negative control. […] After a treatment period of 3 days, the proliferative capacity of the cancer cells was measured with CellTiter 96® AQueous One Solution Cell Proliferation kit (Promega), following the manufacturer's instructions. Results are presented in Tables 58-62 as percent inhibition of proliferation, relative to non-treated cells.
# TMPRSS2 mRNA = assay: TMPRSS2 expression in C4-2 cells; conditions: 48 hrs; for Percent inhibition of TMPRSS2 expression: C4-2 cells, CSS + DHT medium
# Experimental: Cells were plated at 1,000 cells per well. […] After an incubation period of 48 hrs, RNA levels of AR, PSA and TMPRSS2 were measured.
# Cells were plated at 2,000 cells per well and cultured in CSS media with 1 nM DHT. […] After an incubation period of 48 hrs, RNA levels of AR, PSA and TMPRSS2 were measured.
# C4-2B cells = assay: C4-2B cell proliferation (complete or CSS+DHT medium; Example 30); conditions: 5 days; for Proliferation (% untreated control): C4-2B cells
# Experimental: (§1) After a treatment period of 5 days in complete medium or CSS+1 nM DHT medium, the proliferative capacity of the cancer cells was measured with using CellTiter 96® AQueous One or CellTiter-Glo® Solution Cell Proliferation kit (Promega), following the manufacturer's instructions.
# VCaP cells = assay: VCaP cell proliferation; conditions: 5 days; for Proliferation (% untreated control): VCaP cells
# Experimental: as §1, with “instructions. […] Treatment with ISIS oligonucleotides in CSS+DHT medium reduced the proliferative capacity to a greater extent than treatment with MVD-3100. The proliferative capacity of cells cultured in CSS medium without DHT is 12% of untreated control levels.” for “instructions.”
# AR V7 variant mRNA = assay: AR V7 variant RNA in 22RV1 cells; conditions: 48 hrs
# [1] = complete medium or CSS+1 nM DHT
smiles,measurement,setting,value
"CNC(=O)c1ccc(N2C(=S)N(c3ccc(C#N)c(C(F)(F)F)c3)C(=O)C2(C)C)cc1F [MDV3100, 4-(3-(4-cyano-3-(trifluoromethyl)phenyl)-5,5-dimethyl-4-oxo-2-thioxoimidazolidin-1-yl)-2-fluoro-N-methylbenzamide, reference compound]",inhibition at 0.08 µM,LNCaP cells,7%
same,inhibition at 1 µM,22RV1 cells,5%
same,Percent inhibition of TMPRSS2 expression,TMPRSS2 mRNA; 0.04 μM,9%
same,Percent inhibition of TMPRSS2 expression,TMPRSS2 mRNA; 0.2 μM,0%
same,Percent inhibition of TMPRSS2 expression,TMPRSS2 mRNA; 1 μM,44%
same,Percent inhibition of TMPRSS2 expression,TMPRSS2 mRNA; 5.0 μM,78%
same,Percent inhibition of TMPRSS2 expression in C4-2 cells cultured in complete medium,TMPRSS2 mRNA; 0.04 μM,10%
same,Percent inhibition of TMPRSS2 expression in C4-2 cells cultured in complete medium,TMPRSS2 mRNA; 0.2 μM,20%
same,Percent inhibition of TMPRSS2 expression in C4-2 cells cultured in complete medium,TMPRSS2 mRNA; 1 μM,44%
same,Percent inhibition of TMPRSS2 expression in C4-2 cells cultured in complete medium,TMPRSS2 mRNA; 5.0 μM,67%
same,Proliferation (% untreated control),"C4-2B cells; CSS + DHT medium, 0.04 μM",125 % untreated control
same,Proliferation (% untreated control),"C4-2B cells; CSS + DHT medium, 0.2 μM",100 % untreated control
same,Proliferation (% untreated control),"C4-2B cells; CSS + DHT medium, 1 μM",83 % untreated control
same,Proliferation (% untreated control),"C4-2B cells; CSS + DHT medium, 5.0 μM",17 % untreated control
same,Proliferation (% untreated control),"C4-2B cells; complete medium, 0.04 μM",131 % untreated control
same,Proliferation (% untreated control),"C4-2B cells; complete medium, 0.2 μM",105 % untreated control
same,Proliferation (% untreated control),"C4-2B cells; complete medium, 1 μM",72 % untreated control
same,Proliferation (% untreated control),"C4-2B cells; complete medium, 5.0 μM",60 % untreated control
same,proliferation of C4-2B cells,C4-2B cells; [1],reduced proliferation of the cells in a dose dependent compared to the control
same,Proliferation (% untreated control),"VCaP cells; CSS + DHT medium, 0.04 μM",117 % untreated control
same,Proliferation (% untreated control),"VCaP cells; CSS + DHT medium, 0.2 μM",119 % untreated control
same,Proliferation (% untreated control),"VCaP cells; CSS + DHT medium, 1.0 μM",71 % untreated control
same,Proliferation (% untreated control),"VCaP cells; CSS + DHT medium, 5.0 μM",65 % untreated control
same,Proliferation (% untreated control),"VCaP cells; Complete medium, 0.04 μM",49 % untreated control
same,Proliferation (% untreated control),"VCaP cells; Complete medium, 0.2 μM",44 % untreated control
same,Proliferation (% untreated control),"VCaP cells; Complete medium, 1.0 μM",27 % untreated control
same,Proliferation (% untreated control),"VCaP cells; Complete medium, 5.0 μM",17 % untreated control
same,proliferation of VCaP cells,VCaP cells; [1],reduced proliferation of the cells in a dose dependent compared to the control
same,"Percent of gene expression, AR V7 variant","AR V7 variant mRNA; CSS + DHT medium, 0.04 μM",16%
same,"Percent of gene expression, AR V7 variant","AR V7 variant mRNA; CSS + DHT medium, 0.2 μM",17%
same,"Percent of gene expression, AR V7 variant","AR V7 variant mRNA; CSS + DHT medium, 1.0 μM",19%
same,"Percent of gene expression, AR V7 variant","AR V7 variant mRNA; CSS + DHT medium, 5.0 μM",12%
same,"Percent of gene expression, AR V7 variant","AR V7 variant mRNA; complete medium, 0.04 μM",106%
same,"Percent of gene expression, AR V7 variant","AR V7 variant mRNA; complete medium, 0.2 μM",98%
same,"Percent of gene expression, AR V7 variant","AR V7 variant mRNA; complete medium, 1.0 μM",87%
same,"Percent of gene expression, AR V7 variant","AR V7 variant mRNA; complete medium, 5.0 μM",77%
